Experimental data published in patent US20070128217A1 (priority 2003, published 2007).

Experiments:
[1] = test system: antibodies in sera from SARS patients (sera 1a, 1b, 2, 6, 37, 62, London, SARS-yellow, SARS-green); format: binding, human; design: Binding of serum 6 to linear peptides of protein X1 of SARS-CoV Urbani / Binding of serum 37 to linear peptides of protein X1 of SARS-CoV Urbani / Binding of serum 6 to looped/cyclic peptide (PEPSCAN-ELISA) / Binding of serum 37 to looped/cyclic peptide (PEPSCAN-ELISA) / Binding of serum 37 to looped/cyclic peptides of protein X1 of SARS-CoV Urbani / Binding of serum 6 to linear peptides of protein X2 / Binding of serum 37 to linear peptides of protein X2 / Binding of serum 37 to looped/cyclic peptides of protein X2 of SARS-CoV Urbani / Binding of serum 6 to linear peptides of protein M of SARS-CoV Urbani / Binding of serum 37 to linear peptides of protein M of SARS-CoV Urbani / Binding of serum 6 to looped/cyclic peptides of protein M of SARS-CoV Urbani / Binding of serum 37 to looped/cyclic peptides of protein M of SARS-CoV Urbani / Binding of serum 6 to linear peptides of protein X3 of SARS-CoV Urbani / Binding of serum 37 to linear peptides of protein X3 of SARS-CoV Urbani / Binding of serum 37 to looped/cyclic peptides of protein X3 of SARS-CoV Urbani / Binding of serum 6 to linear peptides of protein X4 of SARS-CoV Urbani / Binding of serum 37 to linear peptides of protein X4 of SARS-CoV Urbani / Binding of serum 37 to looped/cyclic peptides of protein X4 of SARS-CoV Urbani / Binding of serum 6 to linear peptides of protein X5 of SARS-CoV Urbani / Binding of serum 37 to linear peptides of protein X5 of SARS-CoV Urbani / Binding of serum 37 to looped/cyclic peptides of protein X5 of SARS-CoV Urbani / Binding of serum 6 to linear peptides of protein N of SARS-CoV Urbani / Binding of serum 37 to linear peptides of protein N of SARS-CoV Urbani / Binding of serum 6 to linear peptide (PEPSCAN-ELISA) / Binding of serum 1a to looped/cyclic peptides of protein N of SARS-CoV Urbani / Binding of serum 1b to looped/cyclic peptides of protein N of SARS-CoV Urbani / Binding of serum 2 to looped/cyclic peptides of protein N of SARS-CoV Urbani / Binding of serum 6 to looped/cyclic peptides of protein N of SARS-CoV Urbani / Binding of serum 37 to looped/cyclic peptides of protein N of SARS-CoV Urbani / Binding of serum 62 to looped/cyclic peptides of protein N of SARS-CoV Urbani / Binding of serum London to looped/cyclic peptides of protein N of SARS-CoV Urbani / Binding of serum SARS-green to looped/cyclic peptides of protein N of SARS-CoV Urbani: unit not given here
[2] = test system: control sera (pooled serum of ten healthy LUMC hospital workers; commercial negative donor pooled serum from the Dutch bloodbank); format: binding, human; design: Binding of Control serum LUMC to linear peptides / Binding of Control serum Blood-bank to linear peptides / Binding of Control serum LUMC to looped peptides / Binding of Control Serum Blood-Bank to Looped peptides / Binding of Control serum LUMC to linear peptides of the protein M of SARS-CoV Urbani / Binding of Control serum Blood-bank to linear peptides of the protein M of SARS-CoV Urbani / Binding of Control serum LUMC to looped peptides of the protein M of SARS-CoV Urbani / Binding of Control Serum Blood-Bank to Looped peptides of the protein M of SARS-CoV Urbani: unit not given here
[3] = test system: rabbit serum obtained by immunizing a rabbit with the SARS-CoV strain Frankfurt 1; format: binding; design: Binding of a rabbit serum to linear peptides / Binding of a rabbit serum to looped peptides / Rabbit serum linear peptides / Rabbit serum looped peptides / Binding of a rabbit serum to linear peptides of protein N of SARS-CoV Urbani (Rabbit serum linear peptides) / Binding of a rabbit serum to looped/cyclic peptides of protein N of SARS-CoV Urbani (Rabbit serum looped peptides): unit not given here

TSLLKTHRMCKYTQS
Binding of serum 1a to linear peptides of protein X2 [1]: 0.7
Binding of serum 1a to looped/cyclic peptides of protein X2 of SARS-CoV Urbani [1]: 0.4
Binding of serum 1b to linear peptides of protein X2 [1]: 0.7
Binding of serum 1b to looped/cyclic peptides of protein X2 of SARS-CoV Urbani [1]: 0.3
Binding of serum 2 to linear peptides of protein X2 [1]: 0.6
Binding of serum 2 to looped/cyclic peptides of protein X2 of SARS-CoV Urbani [1]: 0.2
Binding of serum 6 to linear peptides of protein X2 [1]: 0.5
Binding of serum 6 to looped/cyclic peptides of protein X2 of SARS-CoV Urbani [1]: 0.2
Binding of serum 37 to linear peptides of protein X2 [1]: 0.7
Binding of serum 37 to looped/cyclic peptides of protein X2 of SARS-CoV Urbani [1]: 0.2
Binding of serum 62 to linear peptides of protein X2 [1]: 0.7
Binding of serum 62 to looped/cyclic peptides of protein X2 of SARS-CoV Urbani [1]: 0.4
Binding of serum London to linear peptides of protein X2 [1]: 0.5
Binding of serum London to looped/cyclic peptides of protein X2 of SARS-CoV Urbani [1]: 0.2
Binding of serum SARS-green to linear peptides of protein X2 [1]: 0.6
Binding of serum SARS-green to looped/cyclic peptides of protein X2 of SARS-CoV Urbani [1]: 0.2
Binding of serum SARS-yellow to linear peptides of protein X2 [1]: 0.8
Binding of serum SARS-yellow to looped/cyclic peptides of protein X2 of SARS-CoV Urbani [1]: 0.3
Binding of Control Serum Blood-Bank to Looped peptides [2]: 0.4
Binding of Control serum Blood-bank to linear peptides [2]: 1.0
Binding of Control serum LUMC to linear peptides [2]: 0.9
Binding of Control serum LUMC to looped peptides [2]: 0.4
Binding of a rabbit serum to linear peptides [3]: 0.4
Binding of a rabbit serum to looped peptides [3]: 0.4

TSLSLHKLLQTLVLK
Binding of serum 1a to linear peptides of protein X2 [1]: 0.7
Binding of serum 1a to looped/cyclic peptides of protein X2 of SARS-CoV Urbani [1]: 0.5
Binding of serum 1b to linear peptides of protein X2 [1]: 0.6
Binding of serum 1b to looped/cyclic peptides of protein X2 of SARS-CoV Urbani [1]: 0.4
Binding of serum 2 to linear peptides of protein X2 [1]: 0.5
Binding of serum 2 to looped/cyclic peptides of protein X2 of SARS-CoV Urbani [1]: 0.3
Binding of serum 6 to linear peptides of protein X2 [1]: 1.0
Binding of serum 6 to looped/cyclic peptides of protein X2 of SARS-CoV Urbani [1]: 0.3
Binding of serum 37 to linear peptides of protein X2 [1]: 0.6
Binding of serum 37 to looped/cyclic peptides of protein X2 of SARS-CoV Urbani [1]: 0.4
Binding of serum 62 to linear peptides of protein X2 [1]: 0.7
Binding of serum 62 to looped/cyclic peptides of protein X2 of SARS-CoV Urbani [1]: 0.6
Binding of serum London to linear peptides of protein X2 [1]: 0.6
Binding of serum London to looped/cyclic peptides of protein X2 of SARS-CoV Urbani [1]: 0.2
Binding of serum SARS-green to linear peptides of protein X2 [1]: 0.7
Binding of serum SARS-green to looped/cyclic peptides of protein X2 of SARS-CoV Urbani [1]: 0.4
Binding of serum SARS-yellow to linear peptides of protein X2 [1]: 0.6
Binding of serum SARS-yellow to looped/cyclic peptides of protein X2 of SARS-CoV Urbani [1]: 0.5
Binding of Control Serum Blood-Bank to Looped peptides [2]: 0.6
Binding of Control serum Blood-bank to linear peptides [2]: 0.9
Binding of Control serum LUMC to linear peptides [2]: 0.6
Binding of Control serum LUMC to looped peptides [2]: 0.6
Binding of a rabbit serum to linear peptides [3]: 0.2
Binding of a rabbit serum to looped peptides [3]: 0.5

TSRTLSYYKLGASQR
Binding of serum 1a to linear peptides of protein M of SARS-CoV Urbani [1]: 0.7
Binding of serum 1a to looped/cyclic peptides of protein M of SARS-CoV Urbani [1]: 0.7
Binding of serum 1b to linear peptides of protein M of SARS-CoV Urbani [1]: 0.7
Binding of serum 1b to looped/cyclic peptides of protein M of SARS-CoV Urbani [1]: 0.3
Binding of serum 2 to linear peptides of protein M of SARS-CoV Urbani [1]: 0.7
Binding of serum 2 to looped/cyclic peptides of protein M of SARS-CoV Urbani [1]: 0.7
Binding of serum 6 to linear peptides of protein M of SARS-CoV Urbani [1]: 0.9
Binding of serum 6 to looped/cyclic peptides of protein M of SARS-CoV Urbani [1]: 1.3
Binding of serum 37 to linear peptides of protein M of SARS-CoV Urbani [1]: 0.7
Binding of serum 37 to looped/cyclic peptides of protein M of SARS-CoV Urbani [1]: 0.6
Binding of serum 62 to linear peptides of protein M of SARS-CoV Urbani [1]: 0.5
Binding of serum 62 to looped/cyclic peptides of protein M of SARS-CoV Urbani [1]: 0.6
Binding of serum London to linear peptides of protein M of SARS-CoV Urbani [1]: 0.5
Binding of serum London to looped/cyclic peptides of protein M of SARS-CoV Urbani [1]: 0.7
Binding of serum SARS-green to linear peptides of protein M of SARS-CoV Urbani [1]: 0.7
Binding of serum SARS-green to looped/cyclic peptides of protein M of SARS-CoV Urbani [1]: 0.3
Binding of serum SARS-yellow to linear peptides of protein M of SARS-CoV Urbani [1]: 0.5
Binding of serum SARS-yellow to looped/cyclic peptides of protein M of SARS-CoV Urbani [1]: 0.9
Binding of Control Serum Blood-Bank to Looped peptides of the protein M of SARS-CoV Urbani [2]: 0.6
Binding of Control serum Blood-bank to linear peptides of the protein M of SARS-CoV Urbani [2]: 0.9
Binding of Control serum LUMC to linear peptides of the protein M of SARS-CoV Urbani [2]: 1.0
Binding of Control serum LUMC to looped peptides of the protein M of SARS-CoV Urbani [2]: 0.8
Rabbit serum linear peptides [3]: 0.3
Rabbit serum looped peptides [3]: 1.1
